Test [1] concerns P. berghei NK65. As to the kind of experiment: Modified Peter's 4-day suppressive test in P. berghei NK65 infected Swiss albino mice. Type of test: in vivo, Plasmodium berghei. To be noted: for effect on parasite load / effect on survival: 50 mg/kg s.c. for four consecutive days (artemisinin 5 mg/kg in combination), vs untreated; for median survival time (MST): 6h/6u 50 mg/kg, artemisinin 5 mg/kg, s.c. for four consecutive days, n = 6/group. As for the experimental part: The antimalarial effect of two active analogues, 6h and 6u (administered at 50 mg/kg of body weight), was determined in mice infected with P. berghei NK65, a strain, which results in high levels of blood-stage parasitemia. […] However, the 6u analogue had better antimalarial efficacy than the 6h analogue (Fig. 6A). As such, we then evaluated the efficacy of 6u (50 mg/kg) in combination with artemisinin (5 mg/kg of body weight) at reduced dosage in the murine malaria model. […] The median survival times of animals treated with Pht 6u alone, as well in combination with ART were 23 and 27.5 days, respectively (P<0.001).
Figure 6 Antimalarial effect of Pht analogs (6h and 6u) alone and in combination with Artemisinin (6u and ART) on parasitemia and survival in mice infected with P. berghei NK65. Mice were injected with 1 × 10^7 P. berghei infected RBCs. After 48 hours mice were treated with control (PBS: untreated), 6h and 6u (alone), and 6u in combination with artemisinin (all injected subcutaneously) for four consecutive days. The % of parasitemia was determined for the groups on days 5, 8 and 15 by randomly selecting 10 different optical fields on blood smears. (A) Administration of 6h and 6u (alone), and 6 u in combination with ART. Data are the mean ± SEM from six animals per treatment group. (B) Survival in the treatment groups (n = 6/group). (C) Photomicrograph of blood smears of untreated versus treatment groups at day 15 post infection (100x magnification). ART, Artemisinin; *P < 0.05. TEXT PRINTED IN THE PICTURE: (B) Phthalimide 6h: MST- 19.5 | (B) Phthalimide 6u: MST- 23 | (B) Artemisinin: MST- 21.5 | (B) Phthalimide 6u+Artemisinin: MST- 27.5
All animal experiments were performed in female Swiss albino mice (4 to 5 weeks old, weighing 25 to 30 g). The animals were housed under standard controlled conditions at 25 °C with a 12-h light-dark cycle and access to sterilized food pellets and water. All experiments were carried out in accordance with the standard procedures approved by the Animal Ethics Committee of the University of Delhi South Campus, under the Control and Supervision of Experiments on Animals (CPCSEA), Ministry of Social Justice and Empowerment, Government of India. […] The antimalarial activity was carried out in accordance with a slightly modified version of the Peter’s 4-day suppressive test[43]. The animals were assigned to each group (n = 6). Subsequently, after 48 hour of postinfection, the parasitemia level reached 1 to 2%, and all the groups of mice were treated by subcutaneous (s.c.) injection with compounds 6h and 6u alone as well in combination with artemisinin solubilized in DMSO. One group was kept as a control and treated with physiological saline. The efficacy of the treatment was monitored by measuring the parasitemia and survival on days 5, 8 and 15 posttreatments by obtaining thin smears of blood withdrawn from the tail vein of infected mice and staining with 10% Giemsa. The level of parasitemia was determined by counting infected and noninfected erythrocytes from 10 to 15 randomly selected optical fields at 100x magnification and expressed as the number of infected erythrocytes per 100 erythrocytes. The survival of mice was recorded and observed for external symptoms, such as change in body weight, ruffled fur, lethargy and paralysis, until 30 or 40 days posttreatment. The reduction in the level of parasitemia was taken as the index for the curative activities of the drugs. The percentage of parasitemia was calculated manually with the Cell Counting Aid software[44] using the formula (total no. of parasitized RBCs)/(total no. of RBCs) × 100.
For in-vivo experiments, statistical differences between two groups were determined by Student’s t test and between multiple groups using one-way analysis of variance (ANOVA), with P values of <0.05, by GraphPad Prism (version 5.01; GraphPad Software, Inc., CA). […]

Test [2] deals with P. falciparum 3D7 (Pf3D7), CQ sensitive. The test is described as follows: SYBR Green I growth inhibition assay, asynchronous P. falciparum 3D7 culture. It counts as cell-based, Plasmodium falciparum. To be noted: SYBR Green, mean of three experiments, NDR / No IC50 = no dose response. From the text: Antimalarial activity of all the listed Pht analogues was initially assessed on asynchronous cultures of P. falciparum 3D7 (Pf3D7) clone using the SYBR Green assay. […] The mean IC50 values are based on three separate experiments (Table 1).
The laboratory-adapted P. falciparum strains 3D7 (Africa; CQ sensitive) and W2 (Africa; CQ resistant), were acquired from Malaria Research and Reference Reagent Resource Center (MR4) (Manassas, VA, USA) and maintained with type O +ve erythrocytes suspended in continuous complete culture medium as described. Complete culture media consisted of 10.43 g/litre of RPMI 1640-HEPES supplemented with 10% (vol/vol) human AB serum, 92.6 mg/litre L-glutamine, 50 mg/liter hypoxanthine, 2 g/litre sodium bicarbonate (Sigma-Aldrich, St. Louis, MO). Incubation of cultures was at 37 °C and maintained in a low oxygen atmosphere (5% O2, 5% CO2, 90% N). The levels of parasitemia in the cultures were maintained at between 2 and 10%, with 5% hematocrit. Media was changed after every 24 hours and parasitemia monitored every 48 hours. Synchronous cultures were prepared by sorbitol lysis. Stock solutions of the Pht, Pht analogues, and DHA were prepared in absolute dimethyl sulfoxide (DMSO) while CQ was prepared in distilled water. The prepared drug stock solutions were used immediately or stored at −80 °C for not longer than one month before use. Stock solutions were further diluted in serum free RPMI 1640 media (stock solution solvent final conc. 0.05%) before performing a 2-fold serial dilution to achieve dose ranges of 0.2 µM to 100 µM (Pht and derivatives), 7.8 to 2,000 nM (CQ) and 0.17 to 87.5 nM (DHA). 25 μL of the drug diluents were aliquoted into 96 well plates and used immediately. Alternatively, the stock solutions were diluted in distilled water, 2-fold serial dilution performed on a 96 well plate and allowed to air dry in a laminar flow hood after which dried plates were stored at 4 °C until use. SYBR Green I assay technique with additional modification was used for drug susceptibility testing of the parasites. Parasite cultures of >1% parasitemia were diluted to 1% parasitemia and 2% hematocrit and 200 μL were transferred onto drug pre-dosed plates and incubated at 37 °C for 90 hours, [40]. Drug exposure was terminated by freezing the drug plates at −80 °C for 24 hours after which lysis buffer containing (per liter) 100 mM Tris-HCl, 10 mM EDTA, 0.016% Saponin, 1.6% triton X-100 and 20X SYBR Green I dye was added and the sample incubated for 2 hours in the dark. Relative fluorescence units (RFU) were read using the Perkin Elmer Wallac 1420 fluorescence plate reader, with excitation and emission wavelengths of 485 nm and 535 nm respectively. The readouts values were aligned with corresponding drug doses and analysis performed by Graph-pad Prism software. The drug concentrations (x value) were transformed using X = Log[X] and plotted against the counts (y values) and the data analysed by non-linear regression (sigmoid dose-response/variable slope equation) to yield the IC50.

Setting [3] is: Pf3D7, asynchronous culture, read-out: IC50 (SE) µM.
[4] abbreviates: Plasmodium falciparum, 3D7, Pf3D7, asynchronous culture, read-out: IC50 (SE) µg/mL.

The structures appear in SMILES notation. Where two headings read alike, the source gives them in different places.

For the compound `CC[C@@H](C)[C@H](c1nc2ccccc2n1Cc1cn(-c2ccc(F)cc2)nn1)N1C(=O)c2ccccc2C1=O` [Compound 6h], in test [1], the “effect on parasite load” value is recorded as “suppression of the parasite load”, the effect on survival entry is “improved survival” and the “median survival time (MST)” value was determined as 19.5 days. The IC50 in test [2] (Pf3D7, asynchronous culture, listed as 6 h, read-out: IC50 (SE) µM) was below 5.14 µM. In addition, in test [2] (setting [3]), the IC50 was 0.9 µM. For the same compound, the IC50 in test [2] (setting [4]) amounted to 0.7 µg/mL.

In the case of `CC(C)C[C@H](c1nc2ccccc2n1Cc1c[nH]nn1)N1C(=O)c2ccccc2C1=O` [Compound 6u], in test [1], the “effect on parasite load” value was “suppression of the parasite load”, the effect on survival result was “improved survival” and the “median survival time (MST)” value is given as 23 days. For the same compound, in test [2] (Pf3D7, asynchronous culture, listed as 6 u, read-out: IC50 (SE) µM), the IC50 is below 5.14 µM. Moreover, the IC50 in test [2] (setting [3]) came out at 0.7 µM. Further, in test [2] (setting [4]), the IC50 was determined as 0.3 µg/mL.

The values are drawn from PMC5532363, “Synergistic blending of high-valued heterocycles inhibits growth of Plasmodium falciparum in culture and P. berghei infection in mouse model” (Scientific Reports, 2017).
